According to US20060045953A1 (priority 2004, published 2006):

target: T1, hT1R1/hT1R3 umami receptor (Homo sapiens, UniProt Q7RTX0+Q7RTX1); test: In vitro hT1R1/hT1R3 umami taste receptor activation assay (FLIPR, dose response); assay type: cell-based; details: Table A, Umami Amides; read-out: Umami EC50
T1 construct: expressed in transfected cells; host or cells: HEK293 derivative stably expressing Gα15, clone I-17, expression induced with mifepristone
T1 sequence (Q7RTX1 21-841): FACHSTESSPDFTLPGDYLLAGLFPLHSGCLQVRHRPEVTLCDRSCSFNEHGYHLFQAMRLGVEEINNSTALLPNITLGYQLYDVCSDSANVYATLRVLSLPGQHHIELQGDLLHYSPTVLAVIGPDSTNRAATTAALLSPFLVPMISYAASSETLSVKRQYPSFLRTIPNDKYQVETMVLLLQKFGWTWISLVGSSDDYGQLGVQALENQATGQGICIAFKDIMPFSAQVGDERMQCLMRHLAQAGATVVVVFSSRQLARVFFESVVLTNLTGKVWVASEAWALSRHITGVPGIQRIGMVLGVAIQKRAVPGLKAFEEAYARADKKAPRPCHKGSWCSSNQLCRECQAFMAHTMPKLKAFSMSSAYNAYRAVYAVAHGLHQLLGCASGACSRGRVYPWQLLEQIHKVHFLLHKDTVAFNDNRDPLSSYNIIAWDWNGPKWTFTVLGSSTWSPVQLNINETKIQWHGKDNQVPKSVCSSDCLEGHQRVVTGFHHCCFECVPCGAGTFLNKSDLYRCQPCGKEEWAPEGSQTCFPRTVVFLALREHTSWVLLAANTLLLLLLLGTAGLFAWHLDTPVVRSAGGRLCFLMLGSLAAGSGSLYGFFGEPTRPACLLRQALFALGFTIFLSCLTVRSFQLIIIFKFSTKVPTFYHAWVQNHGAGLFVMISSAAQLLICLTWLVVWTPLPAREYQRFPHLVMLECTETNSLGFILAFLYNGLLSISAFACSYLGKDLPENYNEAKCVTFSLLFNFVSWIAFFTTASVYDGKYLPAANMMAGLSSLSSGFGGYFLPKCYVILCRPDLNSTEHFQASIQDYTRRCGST
T1 sequence (Q7RTX0 21-852): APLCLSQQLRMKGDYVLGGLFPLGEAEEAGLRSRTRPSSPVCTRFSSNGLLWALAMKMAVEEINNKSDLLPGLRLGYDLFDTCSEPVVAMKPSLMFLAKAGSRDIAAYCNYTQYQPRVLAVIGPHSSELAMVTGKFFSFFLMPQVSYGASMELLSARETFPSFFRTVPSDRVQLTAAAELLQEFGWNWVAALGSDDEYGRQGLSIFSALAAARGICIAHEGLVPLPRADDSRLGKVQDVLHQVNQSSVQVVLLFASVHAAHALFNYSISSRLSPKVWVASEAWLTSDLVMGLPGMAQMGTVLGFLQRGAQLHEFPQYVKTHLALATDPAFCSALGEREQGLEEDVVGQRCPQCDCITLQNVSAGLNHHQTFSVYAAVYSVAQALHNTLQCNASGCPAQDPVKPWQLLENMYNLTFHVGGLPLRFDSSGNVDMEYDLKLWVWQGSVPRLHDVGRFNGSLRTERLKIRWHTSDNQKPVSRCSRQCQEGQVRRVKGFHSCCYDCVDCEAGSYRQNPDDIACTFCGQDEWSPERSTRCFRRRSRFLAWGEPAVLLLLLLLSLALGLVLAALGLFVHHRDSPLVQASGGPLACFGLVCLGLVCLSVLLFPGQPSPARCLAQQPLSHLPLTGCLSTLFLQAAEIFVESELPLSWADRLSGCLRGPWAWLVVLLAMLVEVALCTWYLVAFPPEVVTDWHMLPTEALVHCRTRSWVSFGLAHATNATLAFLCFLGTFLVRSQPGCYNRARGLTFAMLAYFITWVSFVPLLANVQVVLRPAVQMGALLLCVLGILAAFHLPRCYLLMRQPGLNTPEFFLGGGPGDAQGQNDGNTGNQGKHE

Point of comparison: `CCCC(CCC)NC(=O)c1ccc2cc[nH]c2c1` [Example A35, N-(heptan-4-yl)-1H-indole-6-carboxamide], EC50 820 nM. Against it:
- CCCC(COC)NC(=O)c1cc2cc(OC)ccc2o1 (stereo not drawn) [Example A19, 5-methoxy-N-(1-methoxypentan-2-yl)benzofuran-2-carboxamide] — 1.6-fold higher, 1300 nM
- CCCC(CC(C)C)NC(=O)c1cc2cc(C)ccc2o1 (stereo not drawn) [Example A20, 5-methyl-N-(2-methylheptan-4-yl)benzofuran-2-carboxamide] — 1.6-fold higher, 1320 nM
- CCC(CC)NC(=O)c1cc2ccccc2o1 [Example A21, N-(pentan-3-yl)benzofuran-2-carboxamide] — 1.9-fold higher, 1520 nM
- CCCC(CCC)NC(=O)c1ccc2ncsc2c1 [Example A22, Benzothiazole-6-carboxylic acid (1-propyl-butyl)-amide] — 1.9-fold higher, 1580 nM
- CCCC(CC(C)C)NC(=O)c1ccc2oc(C)nc2c1 (stereo not drawn) [Example A23, 2-methyl-N-(2-methylheptan-4-yl)benzo[d]oxazole-5-carboxamide] — 2.2-fold lower, 380 nM
- CCCC(CC(C)C)NC(=O)c1ccc2nc(C)oc2c1 (stereo not drawn) [Example A24, 2-methyl-N-(2-methylheptan-4-yl)benzo[d]oxazole-6-carboxamide] — within 1.5-fold, 1120 nM
- CCCC(NC(=O)c1ccc2nc(C)oc2c1)C(C)C (stereo not drawn) [Example A26, 2-methyl-N-(2-methylhexan-3-yl)benzo[d]oxazole-6-carboxamide] — 2-fold higher, 1600 nM
- CCCC(CCC)NC(=O)c1ccc2nc(CC)oc2c1 [Example A27, 2-ethyl-N-(heptan-4-yl)benzo[d]oxazole-6-carboxamide] — 2-fold higher, 1610 nM
- COC(=O)[C@@H](CC(C)C)NC(=O)c1ccc2oc(C)nc2c1 [Example A28, (R)-4-Methyl-2-[(2-methyl-benzooxazole-5-carbonyl)-amino]-pentanoic acid methyl ester] — 2.1-fold higher, 1690 nM
- CCCC(CCC)NC(=O)c1ccc2ncoc2c1 [Example A29, N-(heptan-4-yl)benzo[d]oxazole-6-carboxamide] — 2.3-fold higher, 1910 nM
- CCCC(CCC)NC(=O)c1ccc(Br)o1 [Example A30, 5-bromo-N-(heptan-4-yl)furan-2-carboxamide] — 1.7-fold lower, 490 nM
- CCCC(CCC)NC(=O)c1cc(C)c(C)o1 [Example A31, N-(heptan-4-yl)-4,5-dimethylfuran-2-carboxamide] — within 1.5-fold, 620 nM
- Cc1ccoc1C(=O)NC1CCCC(C)C1C (stereo not drawn) [Example A32, N-(2,3-dimethylcyclohexyl)-3-methylfuran-2-carboxamide] — within 1.5-fold, 1150 nM
- Cc1cc(C(=O)NC2CCCCC2C)oc1C (stereo not drawn) [Example A33, 4,5-dimethyl-N-(2-methylcyclohexyl)furan-2-carboxamide] — 1.6-fold higher, 1330 nM
- COC(=O)[C@@H](CC(C)C)NC(=O)c1cc2ccccc2[nH]1 [Example A34, (R)-methyl 2-(1H-indole-2-carboxamido)-4-methylpentanoate] — 1.5-fold lower, 530 nM
- COC(=O)[C@@H](CC(C)C)NC(=O)c1ccc2[nH]ccc2c1 [Example A36, (R)-methyl 2-(1H-indole-5-carboxamido)-4-methylpentanoate] — within 1.5-fold, 1010 nM
- COC(=O)[C@@H](CC(C)C)NC(=O)c1ccc2ncccc2c1 [Example A37, (R)-methyl 4-methyl-2-(quinoline-6-carboxamido)pentanoate] — 1.8-fold higher, 1500 nM
- CCCC(CCC)NC(=O)c1ccc(C)s1 [Example A38, 5-Methyl-thiophene-2-carboxylic acid (1-propyl-butyl)-amide] — within 1.5-fold, 1220 nM
- Cc1ccc(C(=O)NC2CCCc3ccccc32)s1 (stereo not drawn) [Example A39, 5-Methyl-thiophene-2-carboxylic acid (1,2,3,4-tetrahydro-naphthalen-1-yl) amide] — 1.6-fold higher, 1310 nM
- COC(=O)[C@@H](CC(C)C)NC(=O)c1ccc2ccccc2c1 [Example A40, (R)-methyl 2-(2-naphthamido)-4-methylpentanoate] — 2.2-fold lower, 370 nM
- CCCCC(CCCC)NC(=O)c1ccc2c(c1)OCO2 [Example A41, N-(nonan-5-yl)benzo[d][1,3]dioxole-5-carboxamide] — within 1.5-fold, 700 nM
- CC[C@@H](C)[C@@H](NC(=O)c1ccc2c(c1)OCO2)C(=O)OC [Example A42, (2R,3R)-methyl 2-(benzo[d][1,3]dioxole-5-carboxamido)-3-methylpentanoate] — 2.3-fold lower, 350 nM
- CCCCC(NC(=O)c1ccc2c(c1)OCO2)C(=O)OC (stereo not drawn) [Example A43, 2-[(Benzo[1,3]dioxole-5-carbonyl)-amino]-hexanoic acid methyl ester] — 1.7-fold lower, 490 nM
- COC(=O)[C@@H](CC(C)C)NC(=O)c1ccc2c(c1)CCO2 [Example A46, (R)-methyl 2-(2,3-dihydrobenzofuran-5-carboxamido)-4-methylpentanoate] — 1.6-fold higher, 1320 nM
- O=C(N[C@H]1CCCc2ccccc21)c1ccc2c(c1)OCO2 [Example A47, (S)-N-(1,2,3,4-tetrahydronaphthalen-1-yl)benzo[d][1,3]dioxole-5-carboxamide] — 1.6-fold higher, 1330 nM
- CC(CCc1ccccc1)NC(=O)c1ccc2c(c1)OCO2 (stereo not drawn) [Example A48] — 1.8-fold higher, 1510 nM
- CCCC(NC(=O)c1ccc2c(c1)OCO2)C(=O)OC (stereo not drawn) [Example A49, 2-[(Benzo[1,3]dioxole-5-carbonyl)-amino]-pentanoic acid methyl ester] — 1.9-fold higher, 1540 nM
- CCCC(CCC)C(=O)Nc1ccc2c(c1)OCO2 [Example A50, N-(benzo[d][1,3]dioxol-5-yl)-2-propylpentanamide] — 1.9-fold higher, 1570 nM
- CCCOC(=O)[C@@H](CC(C)C)NC(=O)c1ccc2c(c1)OCO2 [Example A51, (R)-propyl 2-(benzo[d][1,3]dioxole-5-carboxamido)-4-methylpentanoate] — 1.9-fold higher, 1580 nM
- CCCC(CCC)NC(=O)c1ccc2c(c1)CCO2 [Example A52, N-(heptan-4-yl)-2,3-dihydrobenzofuran-5-carboxamide] — 2-fold higher, 1650 nM
- CCCC(CC)NC(=O)c1ccc2c(c1)OCO2 (stereo not drawn) [Example A53, N-(hexan-3-yl)benzo[d][1,3]dioxole-5-carboxamide] — 2.2-fold higher, 1830 nM
- CCCC(CC)NC(=O)c1ccc(SC)c(C)c1 (stereo not drawn) [Example A54, N-(hexan-3-yl)-3-methyl-4-(methylthio)benzamide] — 6.8-fold lower, 120 nM
- CCCCC(NC(=O)c1ccc(OC)c(Cl)c1)C(=O)OC (stereo not drawn) [Example A55, methyl 2-(3-chloro-4-methoxybenzamido)hexanoate] — 6.8-fold lower, 120 nM
- CCCC(CC)NC(=O)c1ccc(C)c(C)c1 (stereo not drawn) [Example A56, N-(hexan-3-yl)-3,4-imethylbenzamide] — 5.9-fold lower, 140 nM
- C=Cc1ccc(C(=O)N[C@H](CC(C)C)C(=O)OC)cc1 [Example A57, (R)-methyl 4-methyl-2-(4-vinylbenzamido)pentanoate] — 4.6-fold lower, 180 nM
- CCC(NC(=O)c1ccc(OC)c(C)c1)C(C)C (stereo not drawn) [Example A58, 4-methoxy-3-methyl-N-(2-methylpentan-3-yl)benzamide] — 4.1-fold lower, 200 nM
- CCCC(NC(=O)c1ccc(OC)c(C)c1)C(C)C (stereo not drawn) [Example A59, 4-methoxy-3-methyl-N-(2-methylhexan-3-yl)benzamide] — 4.1-fold lower, 200 nM
- CCSc1ccc(C(=O)N[C@H](CC(C)C)C(=O)OC)cc1 [Example A60, (R)-methyl 2-(4-(ethylthio)benzamido)-4-methylpentanoate] — 4.1-fold lower, 200 nM
- CCCC(CCC)NC(=O)c1ccc(OC)c(C)c1 [Example A61, N-(heptan-4-yl)-4-methoxy-3-methylbenzamide] — 3.7-fold lower, 220 nM
- COC(=O)[C@H](NC(=O)c1ccc(C)c(C)c1)C(C)C [Example A62, (R)-methyl 2-(3,4-dimethylbenzamido)-3-methylbutanoate] — 3.3-fold lower, 250 nM
- COC(=O)[C@@H](CC(C)C)NC(=O)c1ccc(OC)c(C)c1 [Example A63, (R)-methyl 2-(4-methoxy-3-methylbenzamido)-4-methylpentanoate] — 3.3-fold lower, 250 nM
